Results taken from the NIST ThermoML archive (doi:10.1016/j.tca.2019.178308).
± gives the expanded uncertainty stated by the source. One block for each compound: values may come before it.

How the values were obtained:
[1] = wn = mass fraction of the nth substance listed; settings: 304.15 K, 100 kPa, Liquid, transient hot wire
[2] = 304.15 K; 100 kPa; Liquid; transient hot wire

- thermal conductivity ([1]; w1 = 0.001): 0.589 ± 0.024 W/m/K
- thermal conductivity ([1]; w1 = 0.003): 0.538 ± 0.022 W/m/K
- thermal conductivity ([1]; w1 = 0.005): 0.537 ± 0.022 W/m/K
- thermal conductivity ([1]; w1 = 0.007): 0.499 ± 0.02 W/m/K
SMILES: CCCCCCCCCCCCOS(=O)(=O)[O-].[Na+] [sodium dodecyl sulfate] + O

- thermal conductivity [2]: 0.613 ± 0.025 W/m/K
SMILES: O [water]

- thermal conductivity ([1]; w2 = 0): 0.613 ± 0.025 W/m/K
SMILES: O [water] + CCCCCCCCCCCCOS(=O)(=O)[O-].[Na+]
